Read-outs that look alike come from different tables or passages of the source. Residues, ends and D or L forms follow the SMILES beside them. No end group written: not given here.
Tests used:
[1] = biological target: TNF-induced neutrophil CL production (Homo sapiens, UniProt P01375); conditions: read-out: IC50, inhibition of TNF-induced CL production; TNF (1 ng/ml) pre-treated with peptide for 30 min, human neutrophils, lucigenin chemiluminescence
Experimental: (§1) Neutrophil superoxide production was measured by an indirect assay involving the reduction of the lucigenin, (9, 9′-bis N-methyl-acridinium nitrate) (Sigma-Aldrich, Castle Hill, NSW, Australia) and measuring the light output by lucigenin-dependant chemiluminescence. […] After incubation, 500 μl of lucigenin (250 μM, final) was added and the final volume was adjusted to 1 ml. The cells were placed in luminometer (Autolumat Plus Model LB 953, Berthold Technologies, Bundoora, VIC, Australia) and the resulting chemiluminescence (in relative light units, RLU) measured. The results are expressed as maximal/peak rate of chemiluminescence produced unless specified otherwise. CR3 expression on neutrophils was measured by flow cytometry using anti-CD11b antibodies. […] After treatment, 2 μl of PE-labelled mouse IgG2a isotype control (Clone X39) or PE-labelled monoclonal anti-CD11b antibody (Clone D12) (both from BD Biosciences, North Ryde, NSW, Australia) was added to neutrophils in 200 μl of Isoton II (BD Biosciences) supplemented with 0.1% (w/v) BSA. After 30 min the cells were washed, fixed with formaldehyde (0.1%) and analysed on a FACScan (BD Biosciences, North Ryde, NSW, Australia). Cytokine (IL-1β and IL-8) mRNA productions were measured by quantitative RT-PCR. Briefly, total RNA was extracted from 1 × 10^6 neutrophils using the TRIzol reagent (Life Technologies Australia Pty, Mulgrave, VIC, Australia) according to the manufacturer’s instructions. RNA was converted to cDNA using iScript cDNA synthesis kit (Bio-rad, Hercules, CA, USA).

[2] = system: TNF-rich medium-induced superoxide production in neutrophils; assay: TNF-rich medium (RM)-induced chemiluminescence in neutrophils; format: cell-based, human
[3] = biological target: T1, recombinant human soluble TNFRI (Homo sapiens, UniProt P19438); assay: Inhibition of biotin-labelled TNF70–80 binding to immobilised soluble TNFRI; conditions: tested at 1 mM in the presence of 10 μM biotinylated TNF70–80
T1 construct: rHusTNFRI (22–211), prepared as a chimeric protein; Fc portion of human IgG1; 6x histidine; purchased ProSpec-Tany TechnoGene Ltd (Rehovot, Israel)
T1 sequence (P19438 22-211): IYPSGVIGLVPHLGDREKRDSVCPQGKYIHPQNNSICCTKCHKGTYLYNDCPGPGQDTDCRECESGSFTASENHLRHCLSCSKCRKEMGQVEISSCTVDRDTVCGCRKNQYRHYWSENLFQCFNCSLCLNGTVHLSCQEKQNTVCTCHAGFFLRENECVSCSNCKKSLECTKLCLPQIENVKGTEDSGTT
Experimental: Microtitre plates were coated with 100 μl/well of 3 μg/ml rHusTNFRI (ProSpec-Tany TechnoGene Ltd, Rehovot, Isreal) in 18MQ-cm H2O overnight at 4 °C and blocked with 1% BSA and 0.05% Tween-20 in PBS for 1 h at 4 °C. Aliquot of 10 μM of biotin-labelled TNF70–80 (Auspep Pty, Ltd., Tullamarine, VIC, Australia) plus various concentrations of unlabelled TNF70–80 or control peptide were added to each well and incubated for 3 h at 4 °C. The wells were washed four times with wash buffer (PBS containing 0.05% Tween-20) and the plates were incubated with 100 μl/well of poly-horseradish peroxidase streptavidin conjugate (1/6000 dilution in 1% BSA and 0.05% Tween-20 in PBS) for 45 min at 4 °C. Wells were washed four times with wash buffer and bound enzyme detected by the addition of 3′,3′,5′,5′-tetramethylbenzidine (TMB) substrate (Sigma-Aldrich, Castle Hill, NSW, Australia). Absorbance was measured using dual filter at 570/450 nm on a Dynatech MR700 Plate Reader (Guernsey, Channel Islands).

[4] = system: Ross River virus (RRV)-infected mice; conditions: cited from earlier work
Excerpt: Given that the TNFR peptide sequence covers the minimal region that is required for TNF to activate p38, it is likely the peptide alters the dynamics of the TNF–TNFR interaction—allowing not only TNF binding to TNFRI, but also the activation of the other signalling molecules that the receptor normally activates. This implies that other regions of TNFRI mediate the activation of the other signalli ...

[5] = system: TNF; assay: Solid phase binding of TNF to coated TNFRI peptide; design: species or system human; conditions: peptide-coated plates, 50 U TNF, biotinylated anti-TNF antibody detection
Experimental: Depending on the experiment, microtitre plates were coated with 100 μl/well of either 3 μg/ml TNFRI198–211 in MilliQ water or TNFRI206–211 or the corresponding scrambled peptide in carbonate-bicarbonate buffer (pH 9.6) overnight at 4 °C and blocked with 1% BSA and 0.05% Tween-20 in PBS for 1 h at 4 °C. In the TNFRI198–211-coated plates, various concentrations of biotinylated TNF70–80 or control peptide were added to triplicate wells and incubated for 3 h at 4 °C. In the TNFRI206–211/scrambled peptide-coated plates, 50 U of TNF was added to triplicate wells, followed by washing with wash buffer (PBS/0.05% Tween-20) and then incubation with 50 μl of 1.5 μg/ml biotinylated monoclonal anti-TNF antibody (clone 2TNF-H33, ThermoScientific, Waltham, MA, USA). The wells from all plates were washed four times with wash buffer, then incubated with 100 μl/well of poly-horseradish peroxidase streptavidin conjugate (1/6000 dilution in 1% BSA and 0.05% Tween-20 in PBS) (ThermoScientific, Waltham, MA, USA) for 45 min at 4 °C. Wells were washed four times with wash buffer and bound enzyme detected by the addition of TMB substrate (Sigma-Aldrich, Castle Hill, NSW, Australia). Absorbance was measured using dual filter at 570/450 nm on a Dynatech MR700 Plate Reader (Guernsey, Channel Islands).

[6] = system: CD11b expression in neutrophils; assay: TNF-induced CD11b (CR3) expression in neutrophils, flow cytometry; format: cell-based, human; conditions: TNF (5 ng/ml) pre-treated 20 min with 200 μM peptide unless otherwise specified
Experimental: as §1, with “Briefly, total RNA was extracted from 1 × 10^6 neutrophils using the TRIzol reagent (Life Technologies Australia Pty, Mulgrave, VIC, Australia) according to the manufacturer’s instructions. RNA was converted to cDNA using iScript cDNA synthesis kit (Bio-rad, Hercules, CA, USA).” left out

[7] = system: human neutrophils; assay: TNF70–80-induced lucigenin-dependent chemiluminescence (superoxide) in neutrophils; format: cell-based
Experimental: as §1

[8] = Experimental: TNF70–80 and its control ([…]) were synthesised by Auspep Pty Ltd, (Tullamarine, VIC, Australia) and Genscript Biotech (Piscataway, NJ, USA). […] The sequence from the natural TNF-α was modified by substitution of isoleucine for leucine at residue 79. […] Fresh dilutions of the peptide were prepared daily in HBSS or HBSS with 1% BSA. The His-tagged M4 (HM4) ∆HM4 (LKPGTT) was purchased from Auspep Pty Ltd (Tullamarine, VIC, Australia). […] Peptides were stored at −20 °C and solutions were made in HBSS or RPMI prior to use.
[9] = system: p38 MAPK; assay: p38 activation in neutrophils treated with TNF70–80; format: cell-based, human; conditions: neutrophils incubated 15 min with peptide
Experimental: (§2) The study was approved by the CYWHS Human Ethics Committee (project number HREC 595/12/10). Neutrophils were prepared from peripheral blood of healthy donors, who had given informed consent, by a rapid single-step technique. Blood was layered on to Hypaque-Ficoll (Pharmacia Biotech., Uppsala, Sweden), d = 1.114, and centrifuged at 600 × g for 20–30 min. After centrifugation, the leukocytes resolved into two bands and the neutrophils were harvested from the second band. The preparations of neutrophils were routinely of >99% viability and >98% purity. These were either used as cells in suspension or as adhered neutrophils by adding the cells to plasma-coated plates as previously described. The 70Z/3 pre-B cell line, kindly provided by Dr. W. Langdon, University of Western Australia, Perth, Australia, are mouse pre-B lymphocytes which lack binding sites for human TNF and are non-responsive to the cytokine[18],[19]. The cells were maintained in RPMI 1640 medium with 4.5 g/L glucose, 2 mM L-glutamine, […] 2-mercaptoethanol and 10% FCS in an atmosphere of 95% air and 5% CO2. […]
(§3) p38 activity was determined, after immunoprecipitation, as described using myelin basic protein (MPB) as a substrate for the kinase in the presence of ^32P-ATP[35]. […]

[10] = system: p38 activity in HEK 293T cells; assay: p38 activity in HEK 293T cells stably transfected with TRAF2, ∆TRAF2 or empty vector; format: cell-based; conditions: 10 μM
Experimental: as §2, §3

[11] = system: macrophage; conditions: ability to stimulate nitric oxide production in macrophage; cited from earlier work
Excerpt: The modification extended the serum half-life ...

[12] = system: p38 activity in 70Z/3 pre-B cells; assay: p38 activity in 70Z/3 pre-B cells, mock- or TNFRI (WT/mutant)-transfected; format: cell-based, mouse
Experimental: as §2, with “CO2. The monocytic cell line, MonoMac 6 was kindly provided by Dr. H.W.L. Ziegler-Heitbrock (Institute of Clinical Chemistry and Pathobiochemistry, Klinikum rechts der Isar, Technische Universitat, Munchen, Germany) and maintained in RPMI 1640 supplemented with 10% heat-inactivated foetal calf serum, 1 mM pyruvate, glutamine and antibiotics. A mouse fibroblastic fibrosarcoma cell line WEHI-164, clone 13 (from the ATCC) was obtained from Dr. Geeta Chauhdri (John Curtain School of Medical Research, Australian National University, Canberra, Australia). The cells were maintained in RPMI-1640 medium as above and the cells were detached with 0.25% trypsin EDTA. HEK 293T cells were maintained in DMEM, supplemented with 10% foetal calf serum.” for “CO2.”
as §3

Q: Which results are given for EDSGTT [TNFRI206–211]?
A: IC50 [1]: 171 µM; IC50 ([2]; TNF-RM (conditioned medium of Staphylococcus aureus-stimulated mononuclear leukocytes, 1:10 in HBSS) treated with peptide, n = 3, read-out: IC50, inhibition of neutrophil response to TNF-rich medium): 216 µM

Q: With QIENVKGTEDSGTT [TNFRI198–211] as the compound, how does the IC50 [1] read?
A: Its IC50 is 50 µM.

Q: Which “binding to immobilised TNFR1 (competition with biotinylated TNF70–80)” value [3] does the source give for “GGDPGIVTH [scrambled peptide (GGDPGIVTH), control peptide of TNF70–80 (…)]” here?
A: The value was “Lack of binding”.

Q: For etanercept, which “outcome in RRV-infected mice versus untreated RRV-infected mice” value [4] is on record?
A: Its value is “decreased weight gain, higher viral titre in muscle, joints and blood, associated with a greater degree of tissue damage and inflammatory cell recruitment”.

Q: What does the source list for “GEDTST [scrambled control of TNFRI206–211]”?
A: binding to TNF, solid phase assay [5]: did not bind; effect on TNF-induced CD11b expression in neutrophils [6]: Lack of effect

Q: Which “effect on TNF70–80-induced respiratory burst response” value ([7]; neutrophils pre-incubated with inhibitor for 10 min before TNF70–80) does the source give for `C[S+]([O-])c1ccc(-c2nc(-c3ccncc3)c(-c3ccc(F)cc3)[nH]2)cc1` (stereo not drawn) [SB203580, reference compound] here?
A: The value was “inhibited”.

Q: Which IC50 [1] does the source give for `C[C@@H](O)[C@H](NC(=O)[C@@H](NC(=O)CN)[C@@H](C)O)C(=O)O` [TNFRI209–211] (H-Gly-Thr-Thr-OH) here?
A: Its IC50 is 123 µM.

Q: And the IC50 [2]?
A: The IC50 was 146 µM.

Q: For PSTHVLITHTI [TNF70–80], which serum half-life ([8]; after substitution of isoleucine for leucine at residue 79, no method or species printed) is on record?
A: Its serum half-life is over 1.5 h.

Q: And the water solubility ([8]; after substitution of isoleucine for leucine at residue 79, relative to natural sequence)?
A: The water solubility was “increased”.

Q: What about the “p38 MAPK activation in neutrophils” value [9] of the same compound?
A: The value was “activation of p38 MAPK”.

Q: What about the “p38 activity in cells transfected with dominant-negative TRAF2 (∆TRAF2)” value [10] of the same compound?
A: Its value is “but not in those transfected with ∆TRAF2”.

Q: What about the “p38 activity in cells transfected with wild-type TRAF2 or an empty vector” value [10] of the same compound?
A: The value was “enhanced the activity of p38”.

Q: And the “concentration that equates to 1000 U/ml of TNF” value [11]?
A: Its value is 5.0 µg/mL.

Q: What about the “superoxide production, lucigenin-dependent chemiluminescence” value ([7]; neutrophils, chemiluminescence over 45 min) of the same compound?
A: The value was “stimulated the production of superoxide in a similar manner to TNF”.

Q: What about the “p38 activity effect in M4 TNFRI mutant-transfected cells” value ([12]; 70Z/3 cells, M4 TNFRI mutant, 10 μM, p = 0.11, n = 3) of the same compound?
A: The value was “retained, albeit appearing reduced”.

Q: And the “increase in p38 activity” value ([12]; WT TNFRI- and M1 TNFR1-transfected 70Z/3 cells, 10 μM, 5 min, three experiments)?
A: The value was ~ 2.5 fold.

Q: What about the “p38 activity in 70Z/3 pre-B cells lacking TNFRs” value ([12]; untransfected (mock) cells) of the same compound?
A: Its value is “failed to stimulate the activity of p38”.

Q: Which “effect on TNF70–80-stimulated CL production in human neutrophils” value ([7]; four experiments) does the source give for LKPGTT [∆HM4] here?
A: Its value is “dose-dependent suppression”.

Source: paper PMC5893557, “Small tumor necrosis factor receptor biologics inhibit the tumor necrosis factor-p38 signalling axis and inflammation” (Nature Communications, 2018)
